We go through one molecule from patent US12508243B2, “Compositions and methods for treating cancer and improving epithelial homeostasis” (The Regents of the University of California, priority 2019, dated 2025).

Entries after “also recorded” stand apart in the source; their conditions may differ.

Data set [1] concerns TCF/LEF luciferase reporter. Nature of the data set: TCF/LEF luciferase reporter assay in transduced BEAS2B cells (CHIR-induced). It counts as cell-based, human. On the procedure:
BEAS2B cells (ATCC CRL-9609) were seeded in a 6-well plate and infected with Cignal lentiviral particles containing a TCF/LEF luciferase reporter (Qiagen CLS-018L). Cells were spin infected at 37° C. for one hour using a multiplicity of infection of 20. Cells were selected with 0.6 μg/mL puromycin to isolate stably expressing clones.
(§1) For luciferase reporter assays conducted outside of the high-throughput drug screen, BEAS2B cells were seeded in a 96-well plate at 20,000 cells per well. The following day, cells were with treated DMSO, 5 μM CHIR99021 (CHIR; Tocris 4423), or 5 μM CHIR plus WIC2 (Key Organics GP-0355), Coumarin (Sigma C4261), or WIC1 for 24 hours. Lysis reactions were conducted using BrightGlo (Promega E1910) and incubated for two minutes at room temperature prior to transferring luminescence reactions to white-bottom, white-walled 96-well plates (Costar). Toxicity assays were conducted by adding Cell Titer Glo reagent (Promega) following manufacturer's protocol. Luminescence readings were conducted using the Clariostar plate reader.
In light of the finding that Wnt/β-catenin signaling drives ABSC hyperproliferation, a small molecule inhibitors of the pathway that could restore airway homeostasis. A high-throughput drug screen was established to identify compounds capable of reducing TCF/LEF activity measured by a luciferase reporter induced by CHIR treatment in a 384-well format (FIG. 3A). Briefly, white-bottom 384-well plates (Greiner One) were precoated overnight with 0.01 mg/mL fibronectin from human plasma (Sigma F0895), 0.03 mg/mL rat tail collagen type I (Corning 354249), and 0.01 mg/mL BSA (ThermoFisher BP-9706) diluted in 50 uL of Airway Epithelial Cell Growth Medium (PromoCell C21060). Precoat was then aspirated and washed using 100 μL the BioTek EL406. A custom V&P pin tool mounted to a Beckman FX liquid handler was then used to pin […] of 10 mM stock compound. 2,000 BEAS2B cells per well were then seeded using the Multidrop. Cells were therefore treated with 1% DMSO, 5 μM CHIR, or 5 μM CHIR+10 μM pinned compound and incubated for 24 hours at 37° C. and 5% CO2. […] 25 μL BrightGlo (Promega) was subsequently added to each well using the BioTek EL405 and incubated for 2 minutes prior reading luminescence values with the Envision plate reader (FIG. 3B). […] Z′ factor values were used to assess assay quality and was calculated by: Z′=1-3(SD Total+SDBackground)/(MeanTotal−MeanBackground) where SDTotal and MeanTotal are the standard deviation and mean of signal for CHIR-treated wells, and SDBackground and MeanBackground are the standard deviation and mean of signal for DMSO-treated wells. The Z′ factor value was calculated to be 0.82.
A general note: Reporter assays use an easily measured gene product as a stand-in for the process of interest.

Data set [2] has as its system BEAS2B cells. Nature of the data set: Hoechst stain toxicity assay (nuclei count) in BEAS2B cells. As to conditions: CHIR+10 uM compound, 24 hours. The class given is cell-based, human.
Data set [3] concerns BEAS2B cells. Nature of the data set: Cell Titer Glo toxicity assay in BEAS2B cells. The class given is cell-based, human. As to the method:
as §1
For orientation: Cellular ATP, detected with luciferase, serves as a proxy for viable cell number.

For data set [4], the system named is mouse ABSCs (mABSCs). The data set is described as follows: EdU proliferation assay in mouse ABSCs, submerged culture. The class given is cell-based. The settings on record: 1 μM CHIR + 1 μM inhibitor, submerged culture 4 days. As to the method:
(§2) Mouse and human ABSCs were isolated following a previously published method. Briefly, mouse tracheas were dissected, cleaned, and incubated in 16 U/mL dispase for 30 minutes (1 hour for human) at room temperature. Tracheas were then incubated in 0.5 mg/mL DNase for another 30 minutes (1 hour for human) at room temperature. Epithelium was stripped and incubated in 0.1% Trypsin-EDTA for 30 minutes (1 hour for human) shaking at 37° C. to generate a single cell suspension. Isolated cells were passed through a 40 μm strainer and stained with fluorophore-conjugated antibodies against ITGA6 and TROP2. ITGA6+ TROP2+ cells were obtained via FACS that was completed using the BD FACSAria cell sorter.
(§3) In vitro proliferation was studied using the Click-iT EdU incorporation assay kit (Invitrogen C10337) following the company's protocol. Briefly, mouse and human AB SC cultures were treated with 10 μM EdU 6-8 hours prior to commencing IFs. Cells were fixed with […] for 15 minutes followed by permeabilization in 0.5% Triton-X for 20 minutes. EdU cocktail was incubated for 30 minutes in darkness followed by immunocytochemistry.
(§4) To determine whether the pathobiology observed in human patients can be modeled in vitro, mouse ABSCs (mABSCs) were treated with GSK3β inhibitor CHIR99021 (CHIR) under submerged culture conditions for 4 days to activate canonical Wnt signaling (FIG. 2A).

Data set [5] has as its system human ABSCs. Nature of the data set: Proliferation of human ABSCs treated with DMSO, CHIR or CHIR+WIC1. It counts as cell-based. As to conditions: CHIR+WIC1 vs CHIR. On the procedure: as §2, §3
(§5) To assess whether WIC1 could reverse Wnt/β-catenin-induced ABSC hyperproliferation, human ABSCs were treated with either DMSO, CHIR, or CHIR+WIC1. […] It was then sought to determine if WIC1 could promote ABSC differentiation to ciliated cells under ALI conditions.

Data set [6] deals with mouse ABSCs (mABSCs). The data set is described as follows: Air-liquid interface (ALI) differentiation assay with mouse ABSCs. The class given is cell-based. As to conditions: mABSCs, ALI. As to the method:
(§6) 24-well 6.5 mm transwells with 0.4 μm pore polyester membrane inserts were coated with 0.2 mg/mL collagen type I dissolved in 60% ethanol and allowed to air dry. ABSCs were seeded at 100,000 cells per well and allowed to grow in the submerged phase of culture for 4-5 days with 500 μl media in the basal chamber and 200 μl media in the apical chamber. ALI cultures were then established and culture with only 500 μl media in the basal chamber, and cultures harvested at varying timepoints for immunofluorescence studies. Media was changed every other day and cultures were maintained at 37° C. and 5% C02. ABSCs were treated with the indicated concentrations of GSK3XV (Sigma 361558), CHIR or WIC1.
Mouse ABSCs were grown in MTEC Plus media and MTEC serum-free media during the submerged and ALI phases of culture, respectively. MTEC base media is DMEM/Ham's F12 50/50 (Corning 15090CV). Table S1 and Table S2 indicate the media components and concentrations for MTEC Plus and MTEC serum-free media, respectively.
Mouse and human ABSCs were fixed in […] for 15 minutes followed by permeabilization with 0.50% Triton-X for 10 minutes. Cells were blocked using serum-free protein block (Dako X090930) for one hour at room temperature and overnight primary antibody incubation. Secondary antibodies were incubated for 1 hour in darkness, washed, and mounted using Vectashield hardest mounting medium with DAPI (Vector Labs H-1500). IF images were obtained using an LSM780 or LSM880 Zeiss confocal microscope and composite images generated using Fiji. […]

In data set [7] the test system is human ABSCs. The data set is described as follows: Air-liquid interface (ALI) differentiation assay with human ABSCs. It counts as cell-based. On the procedure: as §6
(§7) Mouse and human ABSCs were fixed in […] for 15 minutes followed by permeabilization with 0.50% Triton-X for 10 minutes. Cells were blocked using serum-free protein block (Dako X090930) for one hour at room temperature and overnight primary antibody incubation. Secondary antibodies were incubated for 1 hour in darkness, washed, and mounted using Vectashield hardest mounting medium with DAPI (Vector Labs H-1500). IF images were obtained using an LSM780 or LSM880 Zeiss confocal microscope and composite images generated using Fiji.
as §5

In another data set the test system is p-β-catenin^Y489. The data set is described as follows: Immunofluorescence staining of phosphorylated β-catenin localization in ABSCs. The class given is cell-based, mouse. As to conditions: WIC1 added to CHIR-treated cultures. As to the method: as §7, §4
The subject of data set [8] is Wnt signaling target genes CCND1, MYC, CTNNB1. Nature of the data set: qRT-PCR of downstream Wnt signaling target genes in ABSCs. As to conditions: ABSCs under ALI conditions. It counts as cell-based, human. As to the method: (§8) RNA was isolated with the RNeasy Mini Kit (Qiagen 74104) following manufacturer's protocol and quantified using a NanoDrop Spectrophotometer (ThermoFisher). cDNA synthesis was performed using the TaqMan Reverse Transcription Reagents (ThermoFisher) as indicated by the company. qPCR was then performed using the TaqMan PCR Master Mix (Applied Biosystems) on the StepOne-Plus Real Time PCR System.
as §5
Background: Quantitative PCR measures a nucleic acid by following its amplification.

The test system of a further data set is Trp63. The data set is described as follows: Trp63 expression with CHIR and WIC1 treatment (FIG. 4F). The class given is cell-based. As to conditions: WIC1 treatment of CHIR-induced expression. On the procedure:
as §8

The next data set concerns TP63. The data set is described as follows: qRT-PCR of TP63 expression in BEAS2B cells. It counts as cell-based, human. As to conditions: CHIR plus WIC1. On the procedure: as §8

With `CCN1CCN(c2ccc(NC(=O)c3cc4ccccc4oc3=O)cc2)CC1` [WIC1], the “TCF/LEF activity, inhibitor comparison” value in data set [1] (100 nM and 1 μM, WIC1, MSAB, LF3, ICG001 compared) was “most potent inhibitor”. Also, the “TCF/LEF luciferase reporter activity” value in data set [1] (CHIR-induced reporter, single treatment vs CHIR) is recorded as “decreased TCF/LEF luciferase reporter activity; also recorded: decreases TFC/LEF luciferase reporter activity; also recorded: suppressed TCF/LEF activity”. The “TCF/LEF luciferase reporter activity, dose course” value in data set [1] (CHIR-induced reporter, various concentrations) is given as “stepwise decrease in TCF/LEF activity; also recorded: Higher concentrations of WIC1 decrease TFC/LEF luciferase reporter activity to a greater extent”. For the same molecule, the “Toxicity by Hoechst stain” value with BEAS2B cells [2] is recorded as “no toxicity; also recorded: minimal toxicity”. Further, the “Toxicity by Cell Titer Glo” value is given as “non-toxic” in the data set on BEAS2B cells [3] (10 μM) and “minimal toxicity at each concentration” in the data set with BEAS2B cells [3] (various concentrations). Moreover, the “mABSC proliferation (EdU incorporation)” value in the data set with mouse ABSCs (mABSCs) [4] is recorded as “decreased mABSC proliferation to a similar degree”. Also, the “Human ABSC proliferation” value with human ABSCs [5] was “significant reduction in ABSC proliferation; also recorded: reduced Wnt/β-catenin-driven human ABSC hyperproliferation”. Also, the “Proportion of ciliated cells” value in the data set with mouse ABSCs (mABSCs) [6] (100 nM inhibitor vs DMSO) is listed as “induced a greater proportion of ciliated cells”. Besides, the “Percentage of ciliated cells” value in the data set with mouse ABSCs (mABSCs) [6] (1 μM inhibitor vs DMSO) is “no effect on the percentage of ciliated cells”. In addition, the Ciliated cell differentiation result is “significantly induced ciliated cell differentiation; also recorded: increased differentiation to ciliated cells” in the data set with human ABSCs [7] (ABSCs, ALI, 100 nM vs DMSO) and “promoted ciliated cell differentiation” in the data set on human ABSCs [7] (in vitro, concentration not given). Further, the “Nuclear localization of p-β-catenin^Y489” value in the data set on p-β-catenin^Y489 was “decreased the nuclear localization”. In addition, the “mRNA expression of downstream Wnt signaling target genes (CCND1, MYC, CTNNB1)” value in [8] is recorded as “decreased mRNA expression”. Also, the Trp63 expression entry with Trp63 is “substantially reversed”. Further, the TP63 expression result with TP63 was “reduced”.
